Test results published in patent US20250289812A1, “COMPOUND FOR TREATING THROMBOTIC DISEASES” (SHANGHAI INSTITUTE OF MATERIA MEDICA, CHINESE ACADEMY OF …, priority 2020, published 2025).

Legend:
[1] = molecular target: Src kinase SH3 domain protein (Homo sapiens (Human), UniProt P12931); experiment: Surface plasmon resonance (SPR) determination of dissociation constants with SH3 protein; assay type: binding; conditions: SH3 protein coupled to CM5 chip
Method: 1. Experimental method: Surface plasmon resonance test was carried out on BIACORE T200 instrument (GE Company). Fresh purified grade Src kinase SH3 domain protein (concentration 2 mg/ml) was diluted to 0.1 mg/ml with 10 mM CH3COONa (pH 4.2) and then SH3 protein was coupled to the CM5 chip by standard amino coupling methods. The compounds of the invention were diluted in a gradient using a buffer solution (20 mM Tris-HCl, PH 8.0, 100 mM NaCl) for 60 seconds and dissociated for 120 seconds at a flow rate of […], respectively. The changes in response values over time were recorded and analyzed by the BIA Evaluation Software (GE Healthcare) program to obtain the dissociation constants KD for the different compounds with SH3 protein.
2. Experimental results and conclusions: The dissociation constants KD of different compounds and SH3 protein were described in Table 2, and the surface plasmon resonance (SPR) experimental results of some compounds were shown in FIG. 1.

[2] = test system: platelets on solid phase fibrinogen; experiment: Effect of compound on platelet stretching on solid phase fibrinogen; assay type: cell-based; conditions: 1 h, washed platelets, incubated 60 min at 37° C., read-out: Concentration range for compounds that inhibit platelet stretching on fibrinogen
Method: 1. Experimental method: Firstly, 50 μl fibrinogen (0.1M, diluted with pH 8.3 sodium bicarbonate, 20 μg/ml) was added to 96-well plate, and coated overnight at 4° C. After being washed by PBS for 3 times in the morning, sealed with bovine serum albumin (20 mg/ml) at 37° C. for 60 min, then 100 μl of washed platelet suspension was taken, and added into compounds in each group to make the final concentration 250 μM, and incubated at 37° C. for 60 min. 50 μl of incubated platelets were added to 96-well plate, adhered in a temperature box at 37° C. for 60 min, unadhered platelets were removed by PBS washing for 3 times, and adhered platelets were stably fixed with 4% paraformaldehyde, and washed with PBS for 3 times. Then the platelet membrane was perforated with 0.5% Triton X-100, and then the platelet was stained with 0.5 μg/ml phalloidin-rhodamine for 60 min at 37° C. and washed 3 times (10 min each) with PBS.
2. Experimental results and conclusions: The concentration of different compounds on platelet stretching on fibrinogen was shown in Table 3, and the inhibitory effect of some compounds on platelet stretching was shown in FIG. 2.

Chain of Src kinase SH3 domain protein (P12931 whole entry, looked up, the tested form may be a part): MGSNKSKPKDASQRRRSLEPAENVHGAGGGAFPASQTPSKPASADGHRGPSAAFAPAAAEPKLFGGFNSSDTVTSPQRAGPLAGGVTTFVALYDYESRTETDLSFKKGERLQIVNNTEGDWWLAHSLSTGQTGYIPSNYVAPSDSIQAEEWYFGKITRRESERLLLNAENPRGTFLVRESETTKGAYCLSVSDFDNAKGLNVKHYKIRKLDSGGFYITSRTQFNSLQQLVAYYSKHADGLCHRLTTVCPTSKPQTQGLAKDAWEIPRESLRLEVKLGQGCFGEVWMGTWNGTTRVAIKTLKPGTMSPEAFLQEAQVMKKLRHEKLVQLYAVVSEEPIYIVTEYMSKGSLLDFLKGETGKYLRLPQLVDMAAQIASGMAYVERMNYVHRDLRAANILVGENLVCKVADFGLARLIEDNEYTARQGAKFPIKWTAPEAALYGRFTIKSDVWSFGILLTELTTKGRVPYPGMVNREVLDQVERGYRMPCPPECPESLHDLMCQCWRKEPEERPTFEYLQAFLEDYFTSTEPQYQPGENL

Structure (SMILES)	Kd [1] [µM]	minimal effective concentration [2] [µM]
CCOC(=O)c1c(CNC(=N)N)n(C)c2ccc(OC)nc12 [SYY-C001]	< 1	10 to 100
CCOC(=O)c1c(CNC(=N)N)n(C)c2ncccc12 [SYY-C002]	1 to 10	100 to 250
CCOC(=O)c1c(CNC(=N)N)n(C)c2ncc(OC)cc12 [SYY-C003]	< 1	10 to 100
COc1ccc2c(n1)c(C#N)c(CNC(=N)N)n2C [SYY-C004]	1 to 10	100 to 250
COc1ccc2c(n1)c(C(N)=O)c(CNC(=N)N)n2C [SYY-C005]	1 to 10	100 to 250
CCOC(=O)c1c(CNC(=N)N)n(C)c2ccc(O)nc12 [SYY-C006]	< 1	10 to 100
CCOC(=O)c1c(CNC(=N)N)n(C)c2ccc(OC3CCCC3)nc12 [SYY-C007]	< 1	10 to 100
CCOC(=O)c1c(CNC(=N)N)n(C)c2cc(Br)c(OC3CCCC3)nc12 [SYY-C008]	10 to 100	100 to 250
CCOC(=O)c1c(CNC(=N)N)n(C)c2ncc(O)cc12 [SYY-C009]	< 1	10 to 100
CCOC(=O)c1c(CNC(=N)N)n(C)c2ncc(OC3CCCC3)cc12 [SYY-C010]	10 to 100	10 to 100
CCOC(=O)c1c(CNC(=N)N)n(C)c2cc(Br)cnc12 [SYY-C014]	< 1	10 to 100
CCOC(=O)c1c(CNC(=N)N)n(C)c2cc(Br)ccc12 [SYY-C015]	< 1	10 to 100
CCOC(=O)c1c(CNC(=N)N)n(C)c2ccccc12 [SYY-C016]	10 to 100	10 to 100
CCOC(=O)c1c(CNC(=N)N)n(C)c2ccc(Br)cc12 [SYY-C017]	< 1	10 to 100
CCOC(=O)c1c(CNC(=N)N)n(C)c2nc(Cl)ccc12 [SYY-C020]	1 to 10	100 to 250
CCOC(=O)c1c(CNC(=N)N)n(C)c2cc(Br)ncc12 [SYY-C022]	1 to 10	100 to 250
CCOC(=O)c1c(CNC(=N)N)n(C)c2cc(-c3ccccc3)ccc12 [SYY-C023]	10 to 100	10 to 100
CCOC(=O)c1c(CNC(=N)N)n(C)c2cc(C3=CCCC3)ccc12 [SYY-C024]	< 1	10 to 100
CCOC(=O)c1c(CNC(=N)N)n(C)c2cc(C3CCCC3)ccc12 [SYY-C025]	< 1	10 to 100
CCOC(=O)c1c(CNC(=N)N)n(C)c2cccnc12 [SYY-C026]	1 to 10	100 to 250
CCOC(=O)c1c(CNC(=N)N)n(C)c2ccc(-c3ccccc3)cc12 [SYY-C028]	< 1	10 to 100
CCOC(=O)c1c(CNC(=N)N)n(C)c2c1ccc1ccccc12 [SYY-C029]	< 1	10 to 100
CCOC(=O)c1c(CNC(=N)N)n(-c2ccccc2)c2ccccc12 [SYY-C030]	10 to 100	100 to 250
CCOC(=O)c1c(CSC(=N)N)n(-c2ccccc2)c2ccccc12 [SYY-C031]	< 1	10 to 100
CCNC(=N)NCc1c(C(=O)OCC)c2nc(OC)ccc2n1C [SYY-C032]	< 1	10 to 100
CCOC(=O)c1c(CNC(=N)N)n(C)c2ccncc12 [SYY-C034]	1 to 10	100 to 250
CCOC(=O)c1c(CNC(=N)N)n(C)c2cnccc12 [SYY-C035]	1 to 10	100 to 250

Structure (SMILES)	Kd [1] [µM]	minimal effective concentration [2] [µM]
COc1cnc2c(c1)c(C(N)=O)c(CNC(=N)N)n2C [SYY-C036]	–	10 to 100
CCOC(=O)c1c(CNC(=N)N)n(C)c2ccc(C3=CCCC3)cc12 [SYY-C037]	1 to 10	100 to 250
CCOC(=O)c1c(CNC(=N)N)n(C)c2ccc(C3CCCC3)cc12 [SYY-C039]	< 1	10 to 100
CCOC(=O)c1c(CNC(=N)N)n(C)c2cc(-c3cccc4ccccc34)ccc12 [SYY-C040]	< 1	10 to 100
CCOC(=O)c1c(CNC(=N)N)n(C)c2cc(-c3ccc4ccccc4c3)ccc12 [SYY-C041]	10 to 100	100 to 250
CCOC(=O)c1c(CSC(=N)N)n(C)c2cc(-c3cccc4ccccc34)ccc12 [SYY-C042]	1 to 10	10 to 100
CCOC(=O)c1c(CSC(=N)N)n(C)c2cc(-c3ccc4ccccc4c3)ccc12 [SYY-C043]	1 to 10	100 to 250
CCOC(=O)c1c(CSC(=N)N)n(C)c2cc(Cc3ccccc3)ccc12 [SYY-C045]	< 1	10 to 100
CCOC(=O)c1c(CNC(=N)N)n(C)c2cc(C3=CCCCCC3)ccc12 [SYY-C046]	10 to 100	100 to 250
CCOC(=O)c1c(CNC(=N)N)n(C)c2cc(C3CCCCCC3)ccc12 [SYY-C047]	< 1	10 to 100
CCOC(=O)c1c(CNC(=N)N)n(C)c2cc(C3=CCCCC3)ccc12 [SYY-C048]	10 to 100	10 to 100
CCOC(=O)c1c(CNC(=N)N)n(C)c2cc(C3CCCCC3)ccc12 [SYY-C049]	< 1	10 to 100
CCOC(=O)c1c(CSC(=N)N)n(C)c2cc(C3CCCCC3)ccc12 [SYY-C050]	< 1	10 to 100
CCOC(=O)c1c(CSC(=N)N)n(C)c2cc(C3=CCCCC3)ccc12 [SYY-C051]	1 to 10	100 to 250
CCOC(=O)c1c(CSC(=N)N)n(C)c2cc(C3=CCCCCC3)ccc12 [SYY-C052]	1 to 10	100 to 250
CCOC(=O)c1c(CSC(=N)N)n(C)c2cc(C3CCCCCC3)ccc12 [SYY-C053]	< 1	10 to 100
CCOC(=O)c1c(CNC(=N)N)n(C)c2cc(OC3CCCC3)ccc12 [SYY-C054]	< 1	10 to 100
CCOC(=O)c1c(CSC(=N)N)n(C)c2cc(C3CCCc4ccccc43)ccc12 (stereo not shown) [SYY-C055]	< 1	10 to 100
CCOC(=O)c1c(CSC(=N)N)n(C)c2cc(C3CCC(F)(F)CC3)ccc12 [SYY-C056]	10 to 100	100 to 250
CCOC(=O)c1c(CNC(=N)N)n(C)c2cc(C3CCCc4ccccc43)ccc12 (stereo not shown) [SYY-C057]	< 1	10 to 100
CCOC(=O)c1c(CSC(=N)N)n(C)c2cc(OC3CCCC3)ccc12 [SYY-C058]	10 to 100	100 to 250
CCOC(=O)c1c(CSC(=N)N)n(C)c2cc(Oc3ccccc3)ccc12 [SYY-C059]	< 1	10 to 100
CCOC(=O)c1c(CNC(=N)N)n(C)c2cc(C3CCC(F)(F)CC3)ccc12 [SYY-C060]	< 1	10 to 100
CCOC(=O)c1c(CSC(=N)N)n(C)c2cc(OC3CCCCC3)ccc12 [SYY-C061]	10 to 100	10 to 100
CCOC(=O)c1c(CNC(=N)N)n(C)c2cc(C3CC4CCC3C4)ccc12 (stereo not shown) [SYY-C069]	–	10 to 100
CCOC(=O)c1c(CNC(=N)N)n(C)c2cc(-c3cccc4ccc(F)cc34)ccc12 [SYY-C094]	< 1	–
